The record followed here is ChEMBL document CHEMBL1201862, “PubChem BioAssay data set” (2004).

Calls of active or inactive are those of the source.

In test [1] the test system is BJ. The test is described as follows: cells. The format is functional, cell-based. To be noted: Homo sapiens.
The nature of test [2]: reduction of Shn3 3'UTR-driven luciferase in osteoblasts – cell-based, Clone20 osteoblasts, firefly luciferase, cherry-picked, dose response (AID 624132).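 Further: firefly luciferase luminescence from reporter carrying the Shn3 3'UTR in osteoblasts.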 The format is functional.
Test [3] addresses Potassium voltage-gated channel subfamily KQT member 2 (Rattus norvegicus, UniProt O88943, W236L). The test is described as follows: potentiation of rat KCNQ2 current – cell-based, automated electrophysiology, mechanism study for KCNQ2 potentiator project, dose response (AID 2603). Type of test: functional.
Test [4] deals with T1, 1-phosphatidylinositol 4,5-bisphosphate phosphodiesterase beta-3 (Homo sapiens, UniProt Q01970).
T1 sequence (Q01970 whole entry): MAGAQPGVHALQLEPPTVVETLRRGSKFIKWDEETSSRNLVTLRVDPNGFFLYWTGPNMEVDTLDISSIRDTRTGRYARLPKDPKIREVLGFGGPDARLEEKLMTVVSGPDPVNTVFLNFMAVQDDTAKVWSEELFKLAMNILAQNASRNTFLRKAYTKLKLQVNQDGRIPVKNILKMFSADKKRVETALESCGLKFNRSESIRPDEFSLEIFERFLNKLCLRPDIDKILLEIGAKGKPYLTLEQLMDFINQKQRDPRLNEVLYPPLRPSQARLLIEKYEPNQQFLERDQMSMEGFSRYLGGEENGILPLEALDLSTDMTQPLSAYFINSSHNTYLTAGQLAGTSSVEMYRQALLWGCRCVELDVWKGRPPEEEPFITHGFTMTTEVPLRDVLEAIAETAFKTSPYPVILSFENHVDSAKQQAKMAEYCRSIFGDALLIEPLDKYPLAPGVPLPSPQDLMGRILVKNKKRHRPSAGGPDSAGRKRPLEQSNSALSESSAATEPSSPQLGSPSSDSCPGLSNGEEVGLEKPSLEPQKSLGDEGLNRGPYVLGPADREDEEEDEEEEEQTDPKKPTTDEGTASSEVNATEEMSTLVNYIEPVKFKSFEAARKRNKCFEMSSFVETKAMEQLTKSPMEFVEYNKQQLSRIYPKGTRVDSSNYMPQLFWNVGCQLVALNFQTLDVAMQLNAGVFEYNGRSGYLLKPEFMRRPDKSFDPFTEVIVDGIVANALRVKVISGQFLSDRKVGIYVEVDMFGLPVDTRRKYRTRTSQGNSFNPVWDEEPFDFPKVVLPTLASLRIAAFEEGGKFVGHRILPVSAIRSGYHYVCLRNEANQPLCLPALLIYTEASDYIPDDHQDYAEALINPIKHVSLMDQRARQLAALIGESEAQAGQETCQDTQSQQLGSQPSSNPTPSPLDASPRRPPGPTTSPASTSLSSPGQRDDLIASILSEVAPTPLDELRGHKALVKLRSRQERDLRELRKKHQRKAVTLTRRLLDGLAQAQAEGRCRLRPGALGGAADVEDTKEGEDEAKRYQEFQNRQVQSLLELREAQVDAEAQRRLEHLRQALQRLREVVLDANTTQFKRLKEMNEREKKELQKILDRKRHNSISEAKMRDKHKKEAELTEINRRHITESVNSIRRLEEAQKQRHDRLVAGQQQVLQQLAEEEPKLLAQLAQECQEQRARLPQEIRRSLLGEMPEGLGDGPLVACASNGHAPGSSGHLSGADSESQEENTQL
Briefly: Fluorescence-based biochemical high throughput dose response assay to identify inhibitors of phospholipase C isozymes (PLC-B3).

Test [5] concerns the target Beta-galactosidase (Escherichia coli, UniProt Q8VNN2). The test is described as follows: detection-enzyme interference by beta-gal modulators – biochemical, E. coli enzyme, set 3, artefact control for CCR6 antagonist project, dose response (AID 504712). Type of test: functional.

Chain of Beta-galactosidase (Q8VNN2 whole entry): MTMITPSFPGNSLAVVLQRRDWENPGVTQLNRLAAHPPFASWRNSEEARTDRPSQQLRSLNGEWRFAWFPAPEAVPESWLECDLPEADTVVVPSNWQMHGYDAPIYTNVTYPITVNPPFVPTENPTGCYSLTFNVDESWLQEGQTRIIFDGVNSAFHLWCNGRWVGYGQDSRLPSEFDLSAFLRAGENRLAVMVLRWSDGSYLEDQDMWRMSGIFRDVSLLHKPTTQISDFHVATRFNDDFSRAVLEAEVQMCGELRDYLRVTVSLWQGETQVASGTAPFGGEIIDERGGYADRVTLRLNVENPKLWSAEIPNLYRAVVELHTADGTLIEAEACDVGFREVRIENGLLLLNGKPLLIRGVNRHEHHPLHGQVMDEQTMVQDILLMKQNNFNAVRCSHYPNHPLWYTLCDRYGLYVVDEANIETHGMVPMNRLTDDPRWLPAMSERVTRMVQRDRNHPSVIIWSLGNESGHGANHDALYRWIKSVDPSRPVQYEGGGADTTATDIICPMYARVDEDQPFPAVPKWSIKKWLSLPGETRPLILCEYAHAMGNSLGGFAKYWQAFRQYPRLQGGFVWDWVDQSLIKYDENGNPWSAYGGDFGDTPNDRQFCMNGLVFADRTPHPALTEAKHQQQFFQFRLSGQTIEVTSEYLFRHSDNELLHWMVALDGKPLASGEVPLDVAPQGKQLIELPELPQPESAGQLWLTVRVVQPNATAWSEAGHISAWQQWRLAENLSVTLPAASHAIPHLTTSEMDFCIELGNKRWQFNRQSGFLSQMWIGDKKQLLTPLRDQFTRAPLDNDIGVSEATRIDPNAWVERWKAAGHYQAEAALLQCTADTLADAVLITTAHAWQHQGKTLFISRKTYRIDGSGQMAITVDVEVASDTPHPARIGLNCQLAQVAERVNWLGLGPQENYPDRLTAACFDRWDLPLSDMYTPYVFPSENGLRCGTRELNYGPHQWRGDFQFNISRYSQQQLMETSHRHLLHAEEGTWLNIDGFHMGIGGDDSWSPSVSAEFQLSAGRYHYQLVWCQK
Chain of Potassium voltage-gated channel subfamily KQT member 2 (O88943 whole entry W236L): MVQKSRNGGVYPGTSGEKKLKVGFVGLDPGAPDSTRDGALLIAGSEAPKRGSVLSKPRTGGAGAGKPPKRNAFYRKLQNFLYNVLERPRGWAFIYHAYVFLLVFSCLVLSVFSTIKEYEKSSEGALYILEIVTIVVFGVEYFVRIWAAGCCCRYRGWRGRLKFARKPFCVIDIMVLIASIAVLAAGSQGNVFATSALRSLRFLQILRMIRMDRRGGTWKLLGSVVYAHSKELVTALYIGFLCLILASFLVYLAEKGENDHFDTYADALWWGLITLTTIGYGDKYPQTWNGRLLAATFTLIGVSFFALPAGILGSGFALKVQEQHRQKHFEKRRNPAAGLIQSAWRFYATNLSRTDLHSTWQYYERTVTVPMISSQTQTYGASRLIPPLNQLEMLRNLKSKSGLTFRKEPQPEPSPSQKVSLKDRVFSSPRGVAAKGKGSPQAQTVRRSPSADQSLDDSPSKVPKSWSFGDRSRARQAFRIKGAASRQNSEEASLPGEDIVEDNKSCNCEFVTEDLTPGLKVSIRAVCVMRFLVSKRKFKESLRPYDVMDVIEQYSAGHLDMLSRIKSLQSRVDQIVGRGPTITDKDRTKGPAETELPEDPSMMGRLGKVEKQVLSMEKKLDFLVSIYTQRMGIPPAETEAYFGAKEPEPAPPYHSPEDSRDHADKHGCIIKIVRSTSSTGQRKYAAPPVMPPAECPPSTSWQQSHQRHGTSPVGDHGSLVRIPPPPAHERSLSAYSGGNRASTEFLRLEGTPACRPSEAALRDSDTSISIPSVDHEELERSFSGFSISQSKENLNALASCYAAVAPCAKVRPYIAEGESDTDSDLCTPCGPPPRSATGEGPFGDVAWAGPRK

A word on the EC50: it is the concentration needed to bring the measured effect to its halfway point. A word on the AC50: it is the concentration giving half of the maximal activity seen. With `COC(=O)C[C@]1(C(=O)OC)CN(C#N)N(c2ccc(Cl)cc2)C12c1ccccc1-c1ccccc12`, in test [1], the concentration giving a half-maximal response (EC50) was 2.7 µM (active). In addition, the AC50 in test [2] was 1.88 µM (active).

As a reminder, the IC50 is the concentration needed to halve the response being measured. Regarding `Cc1ccccc1NC1=C/C(=N\S(=O)(=O)c2ccc(C(=O)O)cc2)c2ccccc2C1=O`, the half-maximal effective concentration (EC50) in test [3] was 9.51 µM (active). The IC50 in test [4] was > 122 µM (inactive).

On to `Cc1ccc(NC2=C/C(=N/S(=O)(=O)c3cccs3)c3ccccc3C2=O)cc1`, for which the IC50 in test [5] is 50.8 µM (inactive).
